Reference: patent publication US9095138B2, “Isoxazoline insecticides” (E.I. du Pont de Nemours and Company, priority 2007, dated 2015)

Assays:
Format in all cases: in vivo
[1] = tested on: diamondback moth (Plutella xylostella); assay: Test A: control of diamondback moth on radish plant, foliar spray; conditions: sprayed at 50 ppm; neonate larvae on radish; assessed after 6 days; replicated three times
Summary of the method: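 Radish plants 12–14 days old, pre-infested with about 50 neonate larvae, were sprayed with compound at 50 ppm in 10% acetone/water with 300 ppm X-77 surfactant, in three replicates. Units were held 6 days at 25 °C and 70% RH. Feeding damage was assessed visually and mortality was counted.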

[2] = tested on: fall armyworm (Spodoptera frugiperda); assay: Test B: control of fall armyworm on corn (maize) plant, foliar spray; conditions: sprayed at 50 ppm; 1-day-old larvae on corn; replicated three times
Method: Test compounds were formulated using a solution containing 10% acetone, 90% water and 300 ppm X-77™ Spreader Lo-Foam Formula non-ionic surfactant containing alkylarylpolyoxyethylene, free fatty acids, glycols and isopropanol (Loveland Industries, Inc. Greeley, Colo., USA). The formulated compounds were applied in 1 mL of liquid through a SUJ2 atomizer nozzle with ⅛ JJ custom body (Spraying Systems Co. Wheaton, Ill., USA) positioned 1.27 cm (0.5 inches) above the top of each test unit. All experimental compounds in these tests were sprayed at 50 ppm, and the test was replicated three times. After spraying of the formulated test compound, each test unit was allowed to dry for 1 h and then a black, screened cap was placed on top. The test units were held for 6 days in a growth chamber at 25° C. and 70% relative humidity. Plant feeding damage was then visually assessed based on foliage consumed and a pest mortality rating was also counted and calculated for each test unit.
For evaluating control of fall armyworm (Spodoptera frugiperda) the test unit consisted of a small open container with a 4-5-day-old corn (maize) plant inside. This was pre-infested (using a core sampler) with 10-15 1-day-old larvae on a piece of insect diet. Test compounds were formulated and sprayed at 50 ppm as described for Test A and replicated three times. After spraying, the test units were maintained in a growth chamber and then the control efficacy was rated for each test unit as described for Test A.

[3] = tested on: western flower thrips (Frankliniella occidentalis); assay: Test E: control of western flower thrips on Soleil bean plant, contact and/or systemic; conditions: adult thrips, assessed after 6 days, replicated three times
Summary of the method: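 A 5-7 day old Soleil bean plant was sprayed with compound at 250 or 50 ppm in 10% acetone/water with 300 ppm X-77 surfactant, dried 1 hour, then infested with 22-27 adult thrips. After 6 days at 25° C., 45-55% relative humidity, mortality and plant damage were rated; three replicates.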

C[C@@H](NC(=O)c1ccc(C2=NOC(c3cc(Cl)cc(C(F)(F)F)c3)(C(F)(F)F)C2)c2ccccc12)C(=O)NCC1CC1 (some centres unmarked) [Compound 73]
control efficacy (feeding damage or mortality): very good to excellent levels [1]: 20% or less feeding damage or 80% or more mortality | control efficacy (feeding damage or mortality): very good to excellent levels [2]: 20% or less feeding damage or 80% or more mortality | control efficacy (feeding damage or mortality): very good to excellent levels ([3]; sprayed at 50 ppm): 20% or less feeding damage or 80% or more mortality | control efficacy (feeding damage or mortality): very good to excellent levels ([3]; sprayed at 250 ppm): 20% or less feeding damage or 80% or more mortality

C[C@@H](NC(=O)c1ccc(C2=NOC(c3cc(Cl)cc(C(F)(F)F)c3)(C(F)(F)F)C2)c2ccccc12)C(N)=O (some centres unmarked) [Compound 74]
control efficacy (feeding damage or mortality): very good to excellent levels [1]: 20% or less feeding damage or 80% or more mortality | control efficacy (feeding damage or mortality): very good to excellent levels [2]: 20% or less feeding damage or 80% or more mortality | control efficacy (feeding damage or mortality): very good to excellent levels ([3]; sprayed at 50 ppm): 20% or less feeding damage or 80% or more mortality | control efficacy (feeding damage or mortality): very good to excellent levels ([3]; sprayed at 250 ppm): 20% or less feeding damage or 80% or more mortality

O=C(CNC(=O)c1ccc(C2=NOC(c3cc(Cl)cc(C(F)(F)F)c3)(C(F)(F)F)C2)c2ccccc12)NCC1CC1 (centres unmarked) [Compound 76]
control efficacy (feeding damage or mortality): very good to excellent levels [1]: 20% or less feeding damage or 80% or more mortality | control efficacy (feeding damage or mortality): very good to excellent levels [2]: 20% or less feeding damage or 80% or more mortality | control efficacy (feeding damage or mortality): very good to excellent levels ([3]; sprayed at 50 ppm): 20% or less feeding damage or 80% or more mortality | control efficacy (feeding damage or mortality): very good to excellent levels ([3]; sprayed at 250 ppm): 20% or less feeding damage or 80% or more mortality

CC(NC(=O)c1ccc(C2=NOC(c3cc(Cl)cc(C(F)(F)F)c3)(C(F)(F)F)C2)c2ccccc12)C(=O)NC1CC1 (centres unmarked) [Compound 78]
control efficacy (feeding damage or mortality): very good to excellent levels [1]: 20% or less feeding damage or 80% or more mortality | control efficacy (feeding damage or mortality): very good to excellent levels [2]: 20% or less feeding damage or 80% or more mortality | control efficacy (feeding damage or mortality): very good to excellent levels ([3]; sprayed at 50 ppm): 20% or less feeding damage or 80% or more mortality | control efficacy (feeding damage or mortality): very good to excellent levels ([3]; sprayed at 250 ppm): 20% or less feeding damage or 80% or more mortality

CC(NC(=O)c1ccc(C2=NOC(c3cc(Cl)cc(C(F)(F)F)c3)(C(F)(F)F)C2)c2ccccc12)C(=O)NCC1CC1 (centres unmarked) [Compound 79]
control efficacy (feeding damage or mortality): very good to excellent levels [1]: 20% or less feeding damage or 80% or more mortality | control efficacy (feeding damage or mortality): very good to excellent levels [2]: 20% or less feeding damage or 80% or more mortality | control efficacy (feeding damage or mortality): very good to excellent levels ([3]; sprayed at 50 ppm): 20% or less feeding damage or 80% or more mortality | control efficacy (feeding damage or mortality): very good to excellent levels ([3]; sprayed at 250 ppm): 20% or less feeding damage or 80% or more mortality

C[C@@H](NC(=O)c1ccc(C2=NOC(c3cc(C(F)(F)F)cc(C(F)(F)F)c3)(C(F)(F)F)C2)c2ccccc12)C(=O)NCC1CC1(F)F (some centres unmarked) [Compound 80]
control efficacy (feeding damage or mortality): very good to excellent levels [1]: 20% or less feeding damage or 80% or more mortality | control efficacy (feeding damage or mortality): very good to excellent levels [2]: 20% or less feeding damage or 80% or more mortality | control efficacy (feeding damage or mortality): very good to excellent levels ([3]; sprayed at 50 ppm): 20% or less feeding damage or 80% or more mortality | control efficacy (feeding damage or mortality): very good to excellent levels ([3]; sprayed at 250 ppm): 20% or less feeding damage or 80% or more mortality

O=C(CNC(=O)c1ccc(C2=NOC(c3cc(Cl)cc(OC(F)(F)F)c3)(C(F)(F)F)C2)c2ccccc12)NCC1CC1 (centres unmarked) [Compound 81]
control efficacy (feeding damage or mortality): very good to excellent levels [1]: 20% or less feeding damage or 80% or more mortality | control efficacy (feeding damage or mortality): very good to excellent levels [2]: 20% or less feeding damage or 80% or more mortality | control efficacy (feeding damage or mortality): very good to excellent levels ([3]; sprayed at 50 ppm): 20% or less feeding damage or 80% or more mortality

O=C(CNC(=O)c1ccc(C2=NOC(c3cc(Cl)cc(OC(F)(F)F)c3)(C(F)(F)F)C2)c2ccccc12)NC1CC1 (centres unmarked) [Compound 82]
control efficacy (feeding damage or mortality): very good to excellent levels [1]: 20% or less feeding damage or 80% or more mortality | control efficacy (feeding damage or mortality): very good to excellent levels [2]: 20% or less feeding damage or 80% or more mortality | control efficacy (feeding damage or mortality): very good to excellent levels ([3]; sprayed at 50 ppm): 20% or less feeding damage or 80% or more mortality

C[C@@H](NC(=O)c1ccc(C2=NOC(c3cc(Br)cc(C(F)(F)F)c3)(C(F)(F)F)C2)c2ccccc12)C(N)=O (some centres unmarked) [Compound 83]
control efficacy (feeding damage or mortality): very good to excellent levels [1]: 20% or less feeding damage or 80% or more mortality | control efficacy (feeding damage or mortality): very good to excellent levels [2]: 20% or less feeding damage or 80% or more mortality | control efficacy (feeding damage or mortality): very good to excellent levels ([3]; sprayed at 50 ppm): 20% or less feeding damage or 80% or more mortality

O=C(CNC(=O)c1ccc(C2=NOC(c3cc(Cl)cc(OCC(F)(F)F)c3)(C(F)(F)F)C2)c2ccccc12)NCC1CC1 (centres unmarked) [Compound 84]
control efficacy (feeding damage or mortality): very good to excellent levels [1]: 20% or less feeding damage or 80% or more mortality | control efficacy (feeding damage or mortality): very good to excellent levels [2]: 20% or less feeding damage or 80% or more mortality | control efficacy (feeding damage or mortality): very good to excellent levels ([3]; sprayed at 50 ppm): 20% or less feeding damage or 80% or more mortality

O=C(CNC(=O)c1ccc(C2=NOC(c3cc(Cl)cc(OCC(F)(F)F)c3)(C(F)(F)F)C2)c2ccccc12)NC1CC1 (centres unmarked) [Compound 85]
control efficacy (feeding damage or mortality): very good to excellent levels [1]: 20% or less feeding damage or 80% or more mortality | control efficacy (feeding damage or mortality): very good to excellent levels [2]: 20% or less feeding damage or 80% or more mortality | control efficacy (feeding damage or mortality): very good to excellent levels ([3]; sprayed at 50 ppm): 20% or less feeding damage or 80% or more mortality

CC[C@@H](NC(=O)c1ccc(C2=NOC(c3cc(Cl)cc(C(F)(F)F)c3)(C(F)(F)F)C2)c2ccccc12)C(N)=O (some centres unmarked) [Compound 86]
control efficacy (feeding damage or mortality): very good to excellent levels [1]: 20% or less feeding damage or 80% or more mortality | control efficacy (feeding damage or mortality): very good to excellent levels [2]: 20% or less feeding damage or 80% or more mortality | control efficacy (feeding damage or mortality): very good to excellent levels ([3]; sprayed at 50 ppm): 20% or less feeding damage or 80% or more mortality

CC(C)[C@@H](NC(=O)c1ccc(C2=NOC(c3cc(Cl)cc(C(F)(F)F)c3)(C(F)(F)F)C2)c2ccccc12)C(N)=O (some centres unmarked) [Compound 87]
control efficacy (feeding damage or mortality): very good to excellent levels [1]: 20% or less feeding damage or 80% or more mortality | control efficacy (feeding damage or mortality): very good to excellent levels [2]: 20% or less feeding damage or 80% or more mortality | control efficacy (feeding damage or mortality): very good to excellent levels ([3]; sprayed at 50 ppm): 20% or less feeding damage or 80% or more mortality

O=C(NCC(=O)N1CCC(F)(F)C1)c1ccc(C2=NOC(c3cc(Cl)cc(Cl)c3)(C(F)(F)F)C2)c2ccccc12 (centres unmarked) [Compound 90]
control efficacy (feeding damage or mortality): very good to excellent levels [1]: 20% or less feeding damage or 80% or more mortality | control efficacy (feeding damage or mortality): very good to excellent levels [2]: 20% or less feeding damage or 80% or more mortality | control efficacy (feeding damage or mortality): very good to excellent levels ([3]; sprayed at 50 ppm): 20% or less feeding damage or 80% or more mortality | control efficacy (feeding damage or mortality): very good to excellent levels ([3]; sprayed at 250 ppm): 20% or less feeding damage or 80% or more mortality

CS(=O)(CCNC(=O)c1ccc(C2=NOC(c3cc(Cl)cc(Cl)c3)(C(F)(F)F)C2)c2ccccc12)=NC(=O)C(F)(F)F (centres unmarked) [Compound 93]
control efficacy (feeding damage or mortality): very good to excellent levels [1]: 20% or less feeding damage or 80% or more mortality | control efficacy (feeding damage or mortality): very good to excellent levels [2]: 20% or less feeding damage or 80% or more mortality | control efficacy (feeding damage or mortality): very good to excellent levels ([3]; sprayed at 50 ppm): 20% or less feeding damage or 80% or more mortality | control efficacy (feeding damage or mortality): very good to excellent levels ([3]; sprayed at 250 ppm): 20% or less feeding damage or 80% or more mortality
